Test results reported in ChEMBL document CHEMBL1201862, “PubChem BioAssay data set” (2004).
Each block holds one molecule with its values, some of them ahead of it. Calls of active or inactive are those of the source.

What was measured:
[1] = target: T1, Tyrosine-protein phosphatase non-receptor type 7 (Homo sapiens, UniProt P35236); assay: HePTP tyrosine phosphatase activity blockers – biochemical, absorbance, leukemia target, primary screen (AID 521); assay type: functional
T1 sequence (P35236 whole entry): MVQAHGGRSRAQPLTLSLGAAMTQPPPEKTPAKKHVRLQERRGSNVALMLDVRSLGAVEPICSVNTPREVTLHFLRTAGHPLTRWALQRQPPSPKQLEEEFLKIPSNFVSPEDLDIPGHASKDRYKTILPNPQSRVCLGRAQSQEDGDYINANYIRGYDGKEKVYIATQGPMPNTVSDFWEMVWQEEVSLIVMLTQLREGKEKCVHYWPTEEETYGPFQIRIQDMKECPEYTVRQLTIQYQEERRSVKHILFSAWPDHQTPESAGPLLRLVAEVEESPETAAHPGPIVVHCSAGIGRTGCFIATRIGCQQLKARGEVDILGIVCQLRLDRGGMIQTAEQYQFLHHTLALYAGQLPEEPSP

[2] = test system: Vero; assay: mammalian cell viability reduction – secondary assay, cytotoxicity control for West Nile virus antiviral project, dose response (AID 1650); assay type: functional; conditions: Chlorocebus sabaeus
[3] = target: Mitogen-activated protein kinase 10 (Homo sapiens, UniProt P53779); assay: Dose response biochemical screening assay for inhibitors of c-Jun N-Terminal Kinase 3 (JNK3). [Related pubchem assays: 746 ]
Chain of Mitogen-activated protein kinase 10 (P53779 whole entry, the tested form may be a part): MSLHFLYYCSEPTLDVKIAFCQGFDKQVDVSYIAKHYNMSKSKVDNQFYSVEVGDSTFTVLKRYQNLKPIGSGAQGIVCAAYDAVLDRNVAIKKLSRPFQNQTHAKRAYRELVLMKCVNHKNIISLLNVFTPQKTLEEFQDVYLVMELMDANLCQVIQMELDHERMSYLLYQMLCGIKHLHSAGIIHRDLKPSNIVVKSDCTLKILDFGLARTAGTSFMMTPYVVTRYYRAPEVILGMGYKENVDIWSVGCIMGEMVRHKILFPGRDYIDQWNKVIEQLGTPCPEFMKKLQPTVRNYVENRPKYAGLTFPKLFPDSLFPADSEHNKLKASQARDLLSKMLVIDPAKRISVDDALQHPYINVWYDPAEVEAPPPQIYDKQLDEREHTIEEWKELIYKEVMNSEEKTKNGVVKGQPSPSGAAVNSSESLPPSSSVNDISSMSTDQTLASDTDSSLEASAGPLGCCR

[4] = blockers of HIV-1 ZM109 envelope-driven cell-cell fusion – HeLa effector, CEM target cells, luciferase, cherry-pick, dose response (AID 652058); assay type: functional, cell-based;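 further: luciferase signal from HIV-1 Env mediated cell-cell fusion of effector and target cells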
[5] = HIV-1 Vif–A3G interaction blockers – biochemical, TR-FRET, GST-Vif 1-94, biotin-A3G peptide, dose response retest, primary screen (AID 1117319); assay type: functional;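 further: TR-FRET signal of purified GST-Vif binding a biotinylated A3G peptide; inhibitors lower the FRET signal by blocking Vif and A3G binding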
[6] = HIV-1 AD8 envelope cell-cell fusion blockers – cherry-pick, dose response (AID 652062); assay type: functional, cell-based;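 further: luciferase signal from cell-cell fusion driven by HIV-1 clade B AD8 Env; potency is for inhibitors of fusion seen as a drop in luminescence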
[7] = blockers of HIV-1 envelope-mediated cell-cell fusion – cherry-pick, dose response (AID 652057); assay type: functional, cell-based
[8] = off-target signal loss in HeLa-CEM21 co-culture – HeLa F-luc CTL cells, cherry-picked, counter-screen for HIV-1 Env fusion inhibitor project, dose response (AID 652040); assay type: functional, cell-based;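 further: potency for signal decrease marking cytotoxic or nonspecific inhibition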
[9] = target: T2, Aryl hydrocarbon receptor (Homo sapiens, UniProt P35869); assay: Luminescence-based cell-based high throughput dose response assay for activators of the Aryl Hydrocarbon Receptor (AHR). [Related pubchem assays: 2796 (Primary screen (AHR activators in singlicate)), 2845 (Confirmation screen (AHR activators in triplicate)), 434939 (Counterscreen (PXR activators in triplicate)), 2804 (Summary (AHR activators))]; assay type: ADME
T2 sequence (P35869 whole entry): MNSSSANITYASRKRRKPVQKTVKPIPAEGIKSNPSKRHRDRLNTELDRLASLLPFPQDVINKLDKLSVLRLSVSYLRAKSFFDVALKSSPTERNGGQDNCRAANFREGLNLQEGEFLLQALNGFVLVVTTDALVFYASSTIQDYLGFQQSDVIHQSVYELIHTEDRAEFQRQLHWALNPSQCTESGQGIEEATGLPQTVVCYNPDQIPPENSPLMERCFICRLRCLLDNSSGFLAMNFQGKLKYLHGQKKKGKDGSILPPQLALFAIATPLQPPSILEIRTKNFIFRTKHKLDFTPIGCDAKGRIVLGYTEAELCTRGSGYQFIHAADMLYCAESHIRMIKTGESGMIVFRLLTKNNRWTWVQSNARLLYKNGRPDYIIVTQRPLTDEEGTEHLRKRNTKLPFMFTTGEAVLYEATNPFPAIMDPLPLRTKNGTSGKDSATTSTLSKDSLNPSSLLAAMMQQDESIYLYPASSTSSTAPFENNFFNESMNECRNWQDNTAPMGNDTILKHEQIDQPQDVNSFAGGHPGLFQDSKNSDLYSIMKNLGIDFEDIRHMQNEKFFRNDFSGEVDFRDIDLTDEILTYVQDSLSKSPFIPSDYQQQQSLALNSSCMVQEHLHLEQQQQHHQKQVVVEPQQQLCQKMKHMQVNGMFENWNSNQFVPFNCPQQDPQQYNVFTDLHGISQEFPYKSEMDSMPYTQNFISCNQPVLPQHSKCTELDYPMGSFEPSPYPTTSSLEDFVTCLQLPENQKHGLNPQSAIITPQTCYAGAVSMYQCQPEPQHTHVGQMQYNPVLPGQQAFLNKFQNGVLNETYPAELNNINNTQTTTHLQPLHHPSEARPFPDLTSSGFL

[10] = viability loss in THP-1 monocytes – THP-1 cells, cytotoxicity control for Vif-APOBEC3G degradation inhibitor project, dose response (AID 1117359); assay type: functional; conditions: THP-1
[11] = HEK-293T viability loss after treatment – luminescence, T-cell screen hits, cytotoxicity control for TCR NF-kB inhibitor project, dose response (AID 489026); assay type: functional, cell-based;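 further: cells exposed to compound about 14 hours before the viability readout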
[12] = viability of HCT116 lacking mutant beta-catenin – cell-based, human colon tumor, dose response (AID 1045); assay type: functional;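 further: HCT116 colon tumor cells with beta catenin knocked out; cells exposed to compound for 60 hours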
[13] = viability of PTEN-deleted HCT116 cells – cell-based, HCT116 PTEN knockout, dose response (AID 1047); assay type: functional;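 further: HCT116 colon tumor cells with PTEN knocked out; cells exposed to compound for 60 hours before readout; potency for loss of cell viability measured by luminescence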

IC50 [1]: > 100 µM (not active)
Structure (SMILES): CC(NC(=O)c1ccco1)C(c1cccs1)N1CCOCC1 (stereo not drawn)

Structure (SMILES): CCc1ccc(NC(=O)C(=O)NCCN2CCN(Cc3ccc([N+](=O)[O-])cc3)CC2)cc1
CC50 [2]: 37.7 µM (active)

IC50 [3]: 4.19 µM (active)
Structure (SMILES): COc1cc(NC(=O)C2CC(c3cccc(OC)c3OC)=NO2)cc(OC)c1OC (stereo not drawn)

Structure (SMILES): CN1CCN(c2ccccc2NC(=O)C(Cc2ccccc2)n2cccc2)CC1 (stereo not drawn)
AC50 [4]: 6.39 µM (active)
IC50 [5]: > 100 µM (active)
AC50 [6]: 17.5 µM (active)
AC50 [7]: 6.11 µM (active)
AC50 [8]: 12.3 µM (active)

EC50 [9]: 5.46 µM (active)
Structure (SMILES): C/C(=N\NC(=O)c1cccnc1)c1ccc(-n2ccnc2)cc1

Structure (SMILES): COc1ccc(CCNCc2ccc(C)s2)cc1OC
IC50 [5]: > 100 µM (active)
CC50 [10]: > 40 µM (active)

Structure (SMILES): CN(C)c1ccc(-c2nn3c(-c4ccccc4Cl)nnc3s2)cc1
IC50 [1]: > 100 µM (not active)
IC50 [11]: > 80 µM (inactive)

Structure (SMILES): CCCCn1c(=N)n(CC(O)COc2cccc(C)c2)c2ccccc21 (stereo not drawn)
EC50 [12]: 5.24 µM (active)
EC50 [13]: 5.56 µM (active)
CC50 [2]: 40.2 µM (active)

EC50 [9]: 6.55 µM (active)
Structure (SMILES): N#C/C(=C/c1ccccc1)c1nn(CCO)c(N)c1C#N

Structure (SMILES): O=C(O)C1(c2ccc(Cl)cc2)CCC1
IC50 [1]: > 100 µM (not active)
